Nine compounds from US10004701B2, “Methods and compositions for treating infection” (UNIVERSITY OF ROCHESTER, priority 2012, dated 2018) can be followed below.

Counter-ions that a name gives are not always drawn. Like-named read-outs stand apart in the source and are kept apart here.

Common to all, as to assay: AK assay 384-well format, Prestwick library screening
In one assay the test system is E. faecium. In kind it is cell-based, Enterococcus faecium. The following applies: 50 μM final drug concentration; for fold induction at 50 µM: Enterococcus faecium, 3 h.
The next assay concerns K. pneumoniae. In kind it is cell-based, Klebsiella pneumoniae. The following applies: 50 μM final drug concentration; for fold induction at 50 µM: Klebsiella pneumoniae, 3 h.
In the next assay the test system is P. aeruginosa. The format is cell-based, Pseudomonas aeruginosa. The following applies: 50 μM final drug concentration; for fold induction at 50 µM: Pseudomonas aeruginosa, 3 h.
Another assay has as its system E. cloacae. The format is cell-based, Enterobacter cloacae. The following applies: 50 μM final drug concentration; for fold induction at 50 µM: Enterobacter cloacae, 3 h.
Another assay deals with E. coli. In kind it is cell-based, Escherichia coli. The following applies: 50 μM final drug concentration; for fold induction at 50 µM: Escherichia coli, 3 h.
The subject of assay [1] is A. baumannii strain 98-37-09. In kind it is cell-based, Acinetobacter baumannii. Conditions: 50 μM final drug concentration; for fold induction at 50 µM: Acinetobacter baumannii, 983709, 3 h.
Assay [2] concerns S. aureus strain USA300-0114. The format is cell-based, Staphylococcus aureus. The following applies: 50 μM final drug concentration; for fold induction at 50 µM: Staphylococcus aureus, USA300, 3 h.
[3] abbreviates: planktonic E. faecium, positive cutoff 3-fold increase, read-out: AK-based Prestwick library screening result, E. faecium (fold increase in extracellular AK activity).
Setting [4] is: planktonic K. pneumoniae, positive cutoff 3-fold increase, read-out: AK-based Prestwick library screening result, K. pneumoniae (fold increase in extracellular AK activity).
[5] abbreviates: planktonic P. aeruginosa, positive cutoff 3-fold increase, read-out: AK-based Prestwick library screening result, P. aeruginosa (fold increase in extracellular AK activity).
Setting [6] is: planktonic E. cloacae, positive cutoff 3-fold increase, read-out: AK-based Prestwick library screening result, E. cloacae (fold increase in extracellular AK activity).
[7] abbreviates: planktonic E. coli, positive cutoff 3-fold increase, read-out: AK-based Prestwick library screening result, E. coli (fold increase in extracellular AK activity).
Setting [8] is: planktonic A. baumannii, positive cutoff 3-fold increase, read-out: AK-based Prestwick library screening result, A. baumannii (fold increase in extracellular AK activity).
The mark [9] stands for this setting: planktonic S. aureus, positive cutoff 3-fold increase, read-out: AK-based Prestwick library screening result, S. aureus (fold increase in extracellular AK activity).

For the compound `Cc1cnc(NC(=O)C2=C(O)c3ccccc3S(=O)(=O)N2C)s1` [Meloxicam], the fold induction at 50 µM with E. faecium (planktonic E. faecium, cutoff for positive-scoring molecules 3-fold increase, read-out: AK-based Prestwick Library Screening Results, E. faecium (increase in extracellular AK activity)) is 0.9; in the assay on K. pneumoniae (planktonic K. pneumoniae, cutoff for positive-scoring molecules 3-fold increase, read-out: AK-based Prestwick Library Screening Results, K. pneumoniae (increase in extracellular AK activity)), 0.8; in the assay with P. aeruginosa (planktonic P. aeruginosa, cutoff for positive-scoring molecules 3-fold increase, read-out: AK-based Prestwick Library Screening Results, P. aeruginosa (increase in extracellular AK activity)), 0.9; in the assay on E. cloacae (planktonic E. cloacae, cutoff for positive-scoring molecules 3-fold increase, read-out: AK-based Prestwick Library Screening Results, E. cloacae (increase in extracellular AK activity)), 1.2; in the assay on E. coli (planktonic E. coli, cutoff for positive-scoring molecules 3-fold increase, read-out: AK-based Prestwick Library Screening Results, E. coli (increase in extracellular AK activity)), 1; in assay [1] (planktonic A. baumannii, cutoff for positive-scoring molecules 3-fold increase, read-out: AK-based Prestwick Library Screening Results, A. baumannii (increase in extracellular AK activity)) it was 0.9. The fold induction at 50 µM in assay [2] (planktonic S. aureus, cutoff for positive-scoring molecules 3-fold increase, read-out: AK-based Prestwick Library Screening Results, S. aureus (increase in extracellular AK activity)) stood at 2.

As to `CC12CC3CC(C)(C1)CC(N)(C3)C2` [Memantine Hydrochloride], the fold induction at 50 µM with E. faecium (setting [3]) came out at 0.9; with K. pneumoniae (setting [4]) it was 0.5; in the assay on P. aeruginosa (setting [5]), 0.6; in the assay with E. cloacae (setting [6]), 0.7; in the assay on E. coli (setting [7]) it was 0.6; in assay [1] (setting [8]), 0.7. Moreover, the fold induction at 50 µM in assay [2] (setting [9]) turned out to be 0.6.

Take `CC1=CC(=O)c2ccccc2C1=O` [Menadione]: the fold induction at 50 µM in the assay on E. faecium (planktonic, cutoff for positive 3-fold increase, read-out: AK-based Prestwick Library Screening Results, E. faecium (fold increase in extracellular AK activity)) was 1.1; with K. pneumoniae (planktonic, cutoff for positive 3-fold increase, read-out: AK-based Prestwick Library Screening Results, K. pneumoniae (fold increase in extracellular AK activity)), 1; in the assay on P. aeruginosa (planktonic, cutoff for positive 3-fold increase, read-out: AK-based Prestwick Library Screening Results, P. aeruginosa (fold increase in extracellular AK activity)), 1.2; with E. cloacae (planktonic, cutoff for positive 3-fold increase, read-out: AK-based Prestwick Library Screening Results, E. cloacae (fold increase in extracellular AK activity)), 1.5; with E. coli (planktonic, cutoff for positive 3-fold increase, read-out: AK-based Prestwick Library Screening Results, E. coli (fold increase in extracellular AK activity)), 1; in assay [1] (planktonic, cutoff for positive 3-fold increase, read-out: AK-based Prestwick Library Screening Results, A. baumannii (fold increase in extracellular AK activity)), 1. In addition, the fold induction at 50 µM in assay [2] (planktonic, cutoff for positive 3-fold increase, read-out: AK-based Prestwick Library Screening Results, S. aureus (fold increase in extracellular AK activity)) is 1.4.

On to `C[N+]1(C)CCCC(OC(=O)C(O)(c2ccccc2)c2ccccc2)C1` (stereo not drawn) [Mepenzolate bromide], for which the fold induction at 50 µM in the assay on E. faecium (planktonic, cutoff for positive-scoring molecules 3-fold increase, read-out: AK-based Prestwick Library Screening Results, E. faecium (fold increase in extracellular AK activity)) is 1; in the assay with K. pneumoniae (planktonic, cutoff for positive-scoring molecules 3-fold increase, read-out: AK-based Prestwick Library Screening Results, K. pneumoniae (fold increase in extracellular AK activity)), 0.6; with P. aeruginosa (planktonic, cutoff for positive-scoring molecules 3-fold increase, read-out: AK-based Prestwick Library Screening Results, P. aeruginosa (fold increase in extracellular AK activity)), 0.6; with E. cloacae (planktonic, cutoff for positive-scoring molecules 3-fold increase, read-out: AK-based Prestwick Library Screening Results, E. cloacae (fold increase in extracellular AK activity)), 0.7; in the assay with E. coli (planktonic, cutoff for positive-scoring molecules 3-fold increase, read-out: AK-based Prestwick Library Screening Results, E. coli (fold increase in extracellular AK activity)), 0.6; in assay [1] (planktonic, cutoff for positive-scoring molecules 3-fold increase, read-out: AK-based Prestwick Library Screening Results, A. baumannii (fold increase in extracellular AK activity)), 0.7. The fold induction at 50 µM in assay [2] (planktonic, cutoff for positive-scoring molecules 3-fold increase, read-out: AK-based Prestwick Library Screening Results, S. aureus (fold increase in extracellular AK activity)) amounted to 0.6.

On to `Cc1ccccc1OCC(O)CO` (stereo not drawn) [Mephenesin], for which the fold induction at 50 µM was 1 in the assay on E. faecium (384-well format, cutoff for positive-scoring molecules 3-fold increase, read-out: AK-based Prestwick Library Screening Results, E. faecium (increase in extracellular AK activity)); 0.7 in the assay with K. pneumoniae (384-well format, cutoff for positive-scoring molecules 3-fold increase, read-out: AK-based Prestwick Library Screening Results, K. pneumoniae (increase in extracellular AK activity)); 0.6 in the assay with P. aeruginosa (384-well format, cutoff for positive-scoring molecules 3-fold increase, read-out: AK-based Prestwick Library Screening Results, P. aeruginosa (increase in extracellular AK activity)); 0.8 in the assay on E. cloacae (384-well format, cutoff for positive-scoring molecules 3-fold increase, read-out: AK-based Prestwick Library Screening Results, E. cloacae (increase in extracellular AK activity)); 0.7 with E. coli (384-well format, cutoff for positive-scoring molecules 3-fold increase, read-out: AK-based Prestwick Library Screening Results, E. coli (increase in extracellular AK activity)); 0.8 in assay [1] (384-well format, cutoff for positive-scoring molecules 3-fold increase, read-out: AK-based Prestwick Library Screening Results, A. baumannii (increase in extracellular AK activity)). In addition, in assay [2] (384-well format, cutoff for positive-scoring molecules 3-fold increase, read-out: AK-based Prestwick Library Screening Results, S. aureus (increase in extracellular AK activity)), the fold induction at 50 µM was found to be 0.8.

For `CCC1(c2ccccc2)NC(=O)N(C)C1=O` (stereo not drawn) [Mephenytoin], the fold induction at 50 µM in the assay with E. faecium (setting [3]) came to 1; in the assay with K. pneumoniae (setting [4]) it was 1; with P. aeruginosa (setting [5]), 1; with E. cloacae (setting [6]) it was 1.3; with E. coli (setting [7]), 1.1; in assay [1] (setting [8]) it was 1.3. For the same compound, the fold induction at 50 µM in assay [2] (setting [9]) amounted to 1.1.

Regarding `CCCNC(C)(C)COC(=O)c1ccccc1` [Meprylcaine hydrochloride], the fold induction at 50 µM was 0.9 in the assay with E. faecium (setting [3]); 0.7 in the assay on K. pneumoniae (setting [4]); 0.9 with P. aeruginosa (setting [5]); 0.8 in the assay on E. cloacae (setting [6]); 0.9 in the assay on E. coli (setting [7]); 0.8 in assay [1] (setting [8]). The fold induction at 50 µM in assay [2] (setting [9]) stood at 0.6.

Regarding `CCC1(c2cccc(O)c2)CCCCN(C)C1` (stereo not drawn) [Meptazinol hydrochloride], the fold induction at 50 µM came to 1.1 in the assay on E. faecium (planktonic E. faecium, […], read-out: AK-based Prestwick library screening result, E. faecium (fold increase in extracellular AK activity)); 0.9 in the assay with K. pneumoniae (planktonic K. pneumoniae, […], read-out: AK-based Prestwick library screening result, K. pneumoniae (fold increase in extracellular AK activity)); 1.1 in the assay on P. aeruginosa (planktonic P. aeruginosa, […], read-out: AK-based Prestwick library screening result, P. aeruginosa (fold increase in extracellular AK activity)); 1.4 in the assay on E. cloacae (planktonic E. cloacae, […], read-out: AK-based Prestwick library screening result, E. cloacae (fold increase in extracellular AK activity)); 1.3 in the assay with E. coli (planktonic E. coli, […], read-out: AK-based Prestwick library screening result, E. coli (fold increase in extracellular AK activity)); 1.1 in assay [1] (planktonic A. baumannii, […], read-out: AK-based Prestwick library screening result, A. baumannii (fold increase in extracellular AK activity)). In assay [2] (planktonic S. aureus, […], read-out: AK-based Prestwick library screening result, S. aureus (fold increase in extracellular AK activity)), the fold induction at 50 µM stood at 0.9.

With `O=C([O-])c1ccccc1-c1c2cc(Br)c(=O)cc-2oc2[c]([Hg+])c([O-])c(Br)cc12.[Na+].[Na+].[OH-]` [Merbromin], the “AK-based Prestwick Library Screening Results, E. faecium (fold increase in extracellular AK activity)” value in the assay with E. faecium ([…]) is 0.6. The “AK-based Prestwick Library Screening Results, K. pneumoniae (fold increase in extracellular AK activity)” value in the assay with K. pneumoniae ([…]) is listed as 0.4. The “AK-based Prestwick Library Screening Results, P. aeruginosa (fold increase in extracellular AK activity)” value with P. aeruginosa ([…]) is reported as 0.4. Besides, in the assay on E. cloacae ([…]), the “AK-based Prestwick Library Screening Results, E. cloacae (fold increase in extracellular AK activity)” value is listed as 1.4. The “AK-based Prestwick Library Screening Results, E. coli (fold increase in extracellular AK activity)” value with E. coli ([…]) amounted to 0.5. Moreover, in assay [1] ([…]), the “AK-based Prestwick Library Screening Results, A. baumannii (fold increase in extracellular AK activity)” value worked out at 0.7. Also, in assay [2] ([…]), the “AK-based Prestwick Library Screening Results, S. aureus (fold increase in extracellular AK activity)” value was 0.2.
